This is an account of results in patent publication US11878986B2, “Poly heterocyclic conjugates and their pharmaceutical uses” (National Health Research Institutes, priority 2020, dated 2024).

This assay has as its system human pancreatic cancer cells (MIA PaCa-2). As to the kind of experiment: Tumor growth inhibition in subcutaneous xenograft model, MIA PaCa-2. Type of assay: in vivo, mouse. Conditions: s.c. xenograft in athymic nude mice; i.v. 1-5 mg/kg, once/week or twice/week for 1-3 weeks; vs vehicle control, p<0.05; FIG. 1. On the procedure: The efficacy of compounds 2 and 11 in inhibiting the growth of human pancreatic cancer cells (MIA PaCa-2) and the efficacy of compounds 1-4, 23, 25, and 26 in inhibiting the growth of human triple-negative breast cancer cells (HCC1806) were assessed as follows.
Male and female athymic NU-Fox1^nu nude mice (BioLASCO, Taiwan) at age 4-5 weeks were housed in sterilized cages equipped with an air filter and sterile bedding materials at the Laboratory Animal Center of the National Health Research Institutes (NHRI), which is an AAALAC International accredited facility. All the mice were fed with sterilized water and chow ad libitum under 12-hr light/12-hr dark cycle throughout the study. […]
The MIA PaCa-2 and HCC1806 cells were suspended in phenol-red-free culture medium/Matrigel™ (1/1) and implanted subcutaneously (s.c.) into the left flank of the nude mice (1×10^6 cells/flank) via a 1 mL syringe. Tumor dimensions were measured twice a week using a digital caliper and the tumor volume (mm^3) was calculated based on the formula, i.e., volume=(length×width^2)/2.
Tumor-bearing mice were randomized (n=7-8 per group) when the average tumor volume reached approximately 200 mm^3. […] Tumor size and body weight of each animal were measured twice a week. Data was expressed as the mean or mean±standard error of the mean (SEM). […]

As to `CCCCCC(=O)Nc1cccc(CN(Cc2cc(CN(Cc3ccccn3)Cc3cccc(NC(=O)CCCCC)n3)cc(OCCCCN(Cc3ccc(-c4ccccc4)cc3)C(=O)COCCOCCOCC(=O)NCc3ccc(CNC(=O)CCSSCCC(=O)N(C)[C@H](C)C(=O)O[C@@H]4CC(=O)N(C)c5cc(cc(OC)c5Cl)C/C(C)=C/C=C/[C@H](OC)[C@]5(O)C[C@@H](OC(=O)N5)[C@H](C)[C@H]5O[C@]54C)cc3)c2)Cc2ccccn2)n1` [Compound 2], the “inhibition of the growth of MIA PaCa-2 (tumor volume)” value is on record as “significantly inhibited the growth”.

On to `CCCCCC(=O)Nc1cccc(CN(Cc2cc(CN(Cc3ccccn3)Cc3cccc(NC(=O)CCCCC)n3)cc(OCCCCNC(=O)COCCOCCOCC(=O)NCc3ccc(CNC(=O)CCSSCCC(=O)N(C)[C@H](C)C(=O)O[C@@H]4CC(=O)N(C)c5cc(cc(OC)c5Cl)C/C(C)=C/C=C/[C@H](OC)[C@]5(O)C[C@H](OC(=O)N5)[C@H](C)C5O[C@@]54C)cc3)c2)Cc2ccccn2)n1` (some centres unmarked) [Compound 11], for which the “inhibition of the growth of MIA PaCa-2 (tumor volume)” value was “significantly inhibited the growth”.
